Here are results for one compound from patent US11235043B2, “Vaccines against antigens involved in therapy resistance and methods of using same” (Duke University, priority 2012, dated 2022).

The experiment deals with 4T1-HER2 expressing tumors. In words: Survivin expression in the mouse 4T1-HER2 tumor model. In kind it is in vivo.

`CS(=O)(=O)CCNCc1ccc(-c2ccc3ncnc(Nc4ccc(OCc5cccc(F)c5)c(Cl)c4)c3c2)o1` [lapatinib]: the survivin expression entry was “no change in survivin expression”.
